Data reported in doi:10.1101/2023.12.04.569845, “Identification of 4-(6-((2-methoxyphenyl)amino)pyrazin-2-yl)benzoic acids as CSNK2A inhibitors with antiviral activity and improved selectivity over PIM3” (bioRxiv, 2023).
Read-outs that look alike come from different tables or passages of the source.

What was measured:
Experiment in all cases: biochemical
Parameters in all cases: Thermal shift (DSF, SYPRO Orange) Tm shift of recombinant kinase domains at 10 uM compound
Haspin = target: T1, Haspin (Homo sapiens, UniProt Q8TF76)
T1 sequence (Q8TF76 1-798): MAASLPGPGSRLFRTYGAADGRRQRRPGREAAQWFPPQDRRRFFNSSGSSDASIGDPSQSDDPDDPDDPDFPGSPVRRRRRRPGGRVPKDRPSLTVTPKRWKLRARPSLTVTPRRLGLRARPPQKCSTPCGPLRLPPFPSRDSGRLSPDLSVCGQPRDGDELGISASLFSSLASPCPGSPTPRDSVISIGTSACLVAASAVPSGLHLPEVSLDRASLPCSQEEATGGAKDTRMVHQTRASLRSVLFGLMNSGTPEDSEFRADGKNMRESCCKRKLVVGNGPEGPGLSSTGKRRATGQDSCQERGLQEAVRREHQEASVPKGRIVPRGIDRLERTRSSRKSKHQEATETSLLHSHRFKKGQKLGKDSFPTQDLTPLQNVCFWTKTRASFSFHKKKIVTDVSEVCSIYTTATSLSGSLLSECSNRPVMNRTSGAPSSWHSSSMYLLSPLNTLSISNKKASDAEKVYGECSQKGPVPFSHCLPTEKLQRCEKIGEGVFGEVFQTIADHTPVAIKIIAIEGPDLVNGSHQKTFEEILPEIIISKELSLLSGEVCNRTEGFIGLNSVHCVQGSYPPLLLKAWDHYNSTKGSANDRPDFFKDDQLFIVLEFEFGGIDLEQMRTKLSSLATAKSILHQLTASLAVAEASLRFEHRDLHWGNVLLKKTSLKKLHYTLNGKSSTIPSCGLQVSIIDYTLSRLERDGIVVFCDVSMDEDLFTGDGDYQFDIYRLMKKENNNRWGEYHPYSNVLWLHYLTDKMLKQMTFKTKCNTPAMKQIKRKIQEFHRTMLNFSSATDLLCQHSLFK

HIPK2 = HIPK2 (Homo sapiens, UniProt Q9H2X6)
PIM1 = PIM1 (Homo sapiens, UniProt P11309)
CSNK2a1 = target: T2, CSNK2a1 (Homo sapiens, UniProt P68400)
T2 construct: kinase domain

CDK2 = CDK2 (Homo sapiens, UniProt P24941)

T2 sequence (P68400 whole entry, the tested form may be a part): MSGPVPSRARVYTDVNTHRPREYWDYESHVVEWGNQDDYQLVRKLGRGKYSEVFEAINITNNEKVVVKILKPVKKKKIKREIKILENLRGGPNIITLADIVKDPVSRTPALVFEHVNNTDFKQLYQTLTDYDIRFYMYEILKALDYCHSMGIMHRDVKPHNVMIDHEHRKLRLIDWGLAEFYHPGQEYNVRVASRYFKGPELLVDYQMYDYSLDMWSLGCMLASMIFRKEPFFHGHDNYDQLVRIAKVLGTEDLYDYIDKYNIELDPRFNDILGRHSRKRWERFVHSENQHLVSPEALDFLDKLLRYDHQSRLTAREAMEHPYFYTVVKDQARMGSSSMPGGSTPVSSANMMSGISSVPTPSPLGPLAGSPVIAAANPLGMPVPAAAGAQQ
HIPK2, sequence (Q9H2X6 whole entry): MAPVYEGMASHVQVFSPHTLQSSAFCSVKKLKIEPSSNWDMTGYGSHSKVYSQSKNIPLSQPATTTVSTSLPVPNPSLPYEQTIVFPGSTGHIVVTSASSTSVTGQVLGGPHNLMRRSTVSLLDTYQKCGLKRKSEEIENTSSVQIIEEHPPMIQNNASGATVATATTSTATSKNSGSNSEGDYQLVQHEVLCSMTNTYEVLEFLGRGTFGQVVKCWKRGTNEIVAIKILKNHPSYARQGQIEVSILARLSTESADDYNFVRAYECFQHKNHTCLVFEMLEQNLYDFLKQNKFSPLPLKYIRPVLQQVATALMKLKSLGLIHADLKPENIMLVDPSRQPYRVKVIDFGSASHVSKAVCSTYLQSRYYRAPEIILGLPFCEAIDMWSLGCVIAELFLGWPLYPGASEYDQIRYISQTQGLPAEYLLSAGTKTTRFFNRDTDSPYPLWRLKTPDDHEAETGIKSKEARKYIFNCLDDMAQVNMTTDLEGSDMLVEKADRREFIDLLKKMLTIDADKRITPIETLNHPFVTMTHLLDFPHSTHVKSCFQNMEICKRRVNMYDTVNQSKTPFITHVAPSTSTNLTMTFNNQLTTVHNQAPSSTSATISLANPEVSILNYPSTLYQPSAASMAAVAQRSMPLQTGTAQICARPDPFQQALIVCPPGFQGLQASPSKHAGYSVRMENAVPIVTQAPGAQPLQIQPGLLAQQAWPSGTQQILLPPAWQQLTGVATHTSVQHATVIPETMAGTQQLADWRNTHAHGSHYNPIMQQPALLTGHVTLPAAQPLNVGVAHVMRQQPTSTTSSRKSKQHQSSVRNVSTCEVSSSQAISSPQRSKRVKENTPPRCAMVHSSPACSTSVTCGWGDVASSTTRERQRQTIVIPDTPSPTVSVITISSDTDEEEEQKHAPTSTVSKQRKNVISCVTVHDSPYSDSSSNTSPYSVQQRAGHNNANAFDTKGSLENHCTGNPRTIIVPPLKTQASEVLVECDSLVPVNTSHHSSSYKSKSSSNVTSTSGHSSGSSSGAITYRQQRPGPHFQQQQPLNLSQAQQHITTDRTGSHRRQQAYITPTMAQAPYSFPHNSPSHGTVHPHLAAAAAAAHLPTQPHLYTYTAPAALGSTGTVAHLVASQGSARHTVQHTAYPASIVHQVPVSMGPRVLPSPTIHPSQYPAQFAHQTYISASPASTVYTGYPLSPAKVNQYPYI
PIM1, sequence (P11309 whole entry): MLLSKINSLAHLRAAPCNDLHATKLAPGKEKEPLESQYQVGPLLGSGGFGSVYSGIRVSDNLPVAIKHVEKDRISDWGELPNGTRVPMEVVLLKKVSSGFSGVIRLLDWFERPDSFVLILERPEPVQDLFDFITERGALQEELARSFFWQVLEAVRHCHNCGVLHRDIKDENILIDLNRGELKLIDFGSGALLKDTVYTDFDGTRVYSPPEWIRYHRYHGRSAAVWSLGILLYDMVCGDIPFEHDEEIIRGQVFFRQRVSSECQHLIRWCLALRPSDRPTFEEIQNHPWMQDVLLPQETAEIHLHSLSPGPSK

A ΔTm at 10 µM (Haspin; read-out: 2) of 3 °C was found for `CC(C)Nc1ccc2cnn(-c3cncc(-c4ccc(C(=O)O)cc4)n3)c2c1` [compound 2, 2] in this work.
A ΔTm at 10 µM (HIPK2; read-out: 7c) of 7 °C, a ΔTm at 10 µM (PIM1; read-out: 7c) of 9 °C and a ΔTm at 10 µM (Haspin; read-out: 7c) of 5 °C were found for `COc1ccc(OC(C)C)cc1Nc1cncc(-c2ccc(C(=O)O)cc2)n1` [7c] in this work. The ΔTm at 10 µM (CSNK2a1; read-out: 7c) was 15 °C and the ΔTm at 10 µM (CDK2; read-out: 7c) was 1 °C.
A ΔTm at 10 µM (HIPK2; read-out: 6c) of 9 °C, a ΔTm at 10 µM (PIM1; read-out: 6c) of 10 °C and a ΔTm at 10 µM (Haspin; read-out: 6c) of 0 °C were found for `CC(C)Oc1ccc2ccn(-c3cncc(-c4ccc(C(=O)O)cc4)n3)c2c1` [6c] in this work. It also gave a ΔTm at 10 µM (CSNK2a1; read-out: 6c) of 15 °C and a ΔTm at 10 µM (CDK2; read-out: 6c) of 5 °C.
